Data reported in patent publication US20250136578A1 (Kolm Therapeutics Inc., priority 2023, published 2025).

What was measured:
[1] = target: AR / CBP ternary complex (Homo sapiens, UniProt P10275+Q92793); assay: Ternary complex formation assay (sandwich ELISA, AR capture, CBP antibody detection) in VCaP cell lysates; format: cell-based; settings: treated 1.5 hours, rabbit CBP or p300 antibody detection, average, read-out: Average Ternary Complex
Summary of the method: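 Sandwich ELISA: plates were coated with anti-AR antibody (AR441) and given lysates of VCaP cells treated 1.5 h with bifunctional compound in charcoal-stripped serum. Co-captured CBP or p300 was probed with rabbit mAbs and HRP secondary. Chemifluorescent signal (ex 570/em 585) was read at 0, 5 and 15 min.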

[2] = tested on: VCaP cells; assay: VCaP growth inhibition assay (CTG); format: cell-based; settings: Homo sapiens, 216 h, 30 pM R1881, 9 days
Summary of the method: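 Growth was measured by CTG luminescence after a 9-day exposure of VCaP cells to compound (final 10 fM–100 nM, fivefold steps) in the presence of 30 pM final R1881, in phenol red-free DMEM/5% CSS. IC50 values were derived by nonlinear 4-parameter regression of RLU against concentration.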

AR / CBP ternary complex, sequence (P10275 whole entry): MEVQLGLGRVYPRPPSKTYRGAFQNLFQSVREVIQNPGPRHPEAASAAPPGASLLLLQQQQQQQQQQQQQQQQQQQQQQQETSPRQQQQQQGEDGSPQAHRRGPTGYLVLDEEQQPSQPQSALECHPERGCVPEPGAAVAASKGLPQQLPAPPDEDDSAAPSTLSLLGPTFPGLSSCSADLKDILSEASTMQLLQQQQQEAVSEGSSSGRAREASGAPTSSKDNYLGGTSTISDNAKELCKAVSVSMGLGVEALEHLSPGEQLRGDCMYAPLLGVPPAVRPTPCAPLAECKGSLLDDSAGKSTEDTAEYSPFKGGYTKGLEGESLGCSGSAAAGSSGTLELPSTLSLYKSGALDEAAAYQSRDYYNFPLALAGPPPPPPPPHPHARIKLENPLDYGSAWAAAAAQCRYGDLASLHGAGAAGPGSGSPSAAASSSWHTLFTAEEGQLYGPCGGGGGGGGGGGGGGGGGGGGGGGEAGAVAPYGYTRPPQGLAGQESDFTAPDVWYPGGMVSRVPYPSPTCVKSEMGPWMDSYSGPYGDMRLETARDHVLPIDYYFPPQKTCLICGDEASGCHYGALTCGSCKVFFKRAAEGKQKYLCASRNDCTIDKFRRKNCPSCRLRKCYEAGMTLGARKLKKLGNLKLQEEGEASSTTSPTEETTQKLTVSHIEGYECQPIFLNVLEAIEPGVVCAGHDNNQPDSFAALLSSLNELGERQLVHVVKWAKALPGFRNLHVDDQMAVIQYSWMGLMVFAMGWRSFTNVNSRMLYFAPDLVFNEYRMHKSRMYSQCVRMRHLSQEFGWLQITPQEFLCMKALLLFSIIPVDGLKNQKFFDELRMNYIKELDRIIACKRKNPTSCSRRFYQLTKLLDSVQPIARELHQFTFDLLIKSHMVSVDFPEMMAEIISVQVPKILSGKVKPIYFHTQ
AR / CBP ternary complex, sequence (Q92793 2-2442): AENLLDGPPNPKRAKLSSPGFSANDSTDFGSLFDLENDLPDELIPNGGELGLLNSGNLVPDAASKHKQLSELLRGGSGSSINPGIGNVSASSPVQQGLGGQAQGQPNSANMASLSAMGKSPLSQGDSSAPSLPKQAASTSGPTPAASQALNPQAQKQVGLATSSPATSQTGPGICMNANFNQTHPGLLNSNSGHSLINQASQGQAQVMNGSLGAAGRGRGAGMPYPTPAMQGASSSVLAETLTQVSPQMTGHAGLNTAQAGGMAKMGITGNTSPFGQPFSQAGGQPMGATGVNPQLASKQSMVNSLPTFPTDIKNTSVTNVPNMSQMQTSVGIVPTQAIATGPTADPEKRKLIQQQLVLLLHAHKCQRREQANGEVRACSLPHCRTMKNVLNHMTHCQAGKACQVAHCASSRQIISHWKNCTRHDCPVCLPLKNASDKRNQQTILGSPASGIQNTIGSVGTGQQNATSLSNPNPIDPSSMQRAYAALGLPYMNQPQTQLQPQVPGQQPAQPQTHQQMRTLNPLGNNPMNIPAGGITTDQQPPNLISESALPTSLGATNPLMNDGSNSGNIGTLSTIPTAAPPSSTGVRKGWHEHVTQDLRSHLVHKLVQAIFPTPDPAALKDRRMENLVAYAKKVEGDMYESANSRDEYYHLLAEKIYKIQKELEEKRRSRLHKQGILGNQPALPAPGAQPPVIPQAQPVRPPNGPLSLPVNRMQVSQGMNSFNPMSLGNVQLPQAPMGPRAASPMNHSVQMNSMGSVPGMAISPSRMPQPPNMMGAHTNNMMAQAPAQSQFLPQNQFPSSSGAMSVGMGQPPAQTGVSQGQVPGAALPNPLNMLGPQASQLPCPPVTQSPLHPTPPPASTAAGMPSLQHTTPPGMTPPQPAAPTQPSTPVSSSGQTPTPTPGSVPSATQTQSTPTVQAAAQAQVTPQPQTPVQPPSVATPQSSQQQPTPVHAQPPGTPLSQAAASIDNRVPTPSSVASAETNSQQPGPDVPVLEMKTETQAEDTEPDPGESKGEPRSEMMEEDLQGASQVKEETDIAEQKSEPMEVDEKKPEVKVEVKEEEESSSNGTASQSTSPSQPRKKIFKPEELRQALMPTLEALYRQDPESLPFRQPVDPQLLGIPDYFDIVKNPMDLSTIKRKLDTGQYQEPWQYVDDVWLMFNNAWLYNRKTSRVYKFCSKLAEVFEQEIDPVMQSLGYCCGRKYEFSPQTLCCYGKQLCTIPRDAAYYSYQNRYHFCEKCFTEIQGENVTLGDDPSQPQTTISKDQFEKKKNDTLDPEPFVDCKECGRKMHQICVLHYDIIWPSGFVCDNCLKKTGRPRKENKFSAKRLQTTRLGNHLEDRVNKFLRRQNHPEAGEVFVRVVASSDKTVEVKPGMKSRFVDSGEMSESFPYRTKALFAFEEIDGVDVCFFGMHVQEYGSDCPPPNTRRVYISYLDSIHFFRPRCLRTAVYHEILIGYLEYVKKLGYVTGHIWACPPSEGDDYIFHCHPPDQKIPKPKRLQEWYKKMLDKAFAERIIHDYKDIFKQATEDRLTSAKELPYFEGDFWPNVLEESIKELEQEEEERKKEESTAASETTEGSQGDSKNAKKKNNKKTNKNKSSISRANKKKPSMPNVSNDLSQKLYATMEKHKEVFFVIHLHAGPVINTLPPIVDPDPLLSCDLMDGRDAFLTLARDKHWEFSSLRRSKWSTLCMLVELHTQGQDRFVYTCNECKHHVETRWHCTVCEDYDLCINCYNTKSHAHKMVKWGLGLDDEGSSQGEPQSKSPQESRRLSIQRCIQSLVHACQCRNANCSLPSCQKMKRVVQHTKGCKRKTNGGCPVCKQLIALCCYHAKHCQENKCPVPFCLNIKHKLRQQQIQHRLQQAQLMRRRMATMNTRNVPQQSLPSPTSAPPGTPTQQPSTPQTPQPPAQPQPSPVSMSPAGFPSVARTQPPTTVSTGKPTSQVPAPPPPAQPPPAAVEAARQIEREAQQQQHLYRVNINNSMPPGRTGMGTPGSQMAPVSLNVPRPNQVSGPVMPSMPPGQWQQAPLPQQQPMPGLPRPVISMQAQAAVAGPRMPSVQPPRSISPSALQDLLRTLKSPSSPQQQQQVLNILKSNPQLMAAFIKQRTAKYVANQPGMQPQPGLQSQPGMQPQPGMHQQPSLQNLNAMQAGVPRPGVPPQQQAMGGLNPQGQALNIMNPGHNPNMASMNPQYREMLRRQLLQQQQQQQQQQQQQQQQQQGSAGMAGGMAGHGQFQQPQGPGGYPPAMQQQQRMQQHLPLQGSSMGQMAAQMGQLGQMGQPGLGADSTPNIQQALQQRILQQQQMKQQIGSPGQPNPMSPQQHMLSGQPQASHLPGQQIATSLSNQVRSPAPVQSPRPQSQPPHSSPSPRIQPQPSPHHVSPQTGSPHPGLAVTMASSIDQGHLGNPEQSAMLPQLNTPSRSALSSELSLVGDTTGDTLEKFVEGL

Row | EC50 [1] | IC50 [2] | Structure (SMILES)
1 | < 1 nM | 0.1 to 1 nM | CC(=O)N1CCc2c(c(N3CCCc4cc(-c5cnn(C)c5)c(C(F)F)cc43)nn2[C@H]2CC[C@@H](C3CCC4(CC3)CN(c3ccc(C(=O)N[C@H]5CC[C@H](Oc6ccc(C#N)c(Cl)c6)CC5)nn3)C4)CC2)C1 [Compound 242, 6-[7-[4-[5-acetyl-3-[7-(difluoromethyl)-6-(1-methylpyrazol-4-yl)-3,4-dihydro-2H-quinolin-1-yl]-6,7-dihydro-4H-pyrazolo[4,3-c]pyridin-1-yl]cyclohexyl]-2-azaspiro[3.5]nonan-2-yl]-N-[4-(3-chloro-4-cyano-phenoxy)cyclohexyl]pyridazine-3-carboxamide]
2 | < 1 nM | 0.1 to 1 nM | COC(=O)N1c2ccc3c(nc(Cc4ccccc4)n3[C@@H]3CCC[C@H](OC4CCN(c5ccc(C(=O)N[C@H]6CC[C@H](Oc7ccc(C#N)c(Cl)c7)CC6)nn5)CC4)C3)c2CC[C@@H]1C [Compound 244, methyl (7S)-2-benzyl-3-[3-[[1-[6-[[4-(3-chloro-4-cyano-phenoxy)cyclohexyl]carbamoyl]pyridazin-3-yl]-4-piperidyl]oxy]cyclohexyl]-7-methyl-8,9-dihydro-7H-imidazo[4,5-f]quinoline-6-carboxylate]
3 | < 1 nM | ≤ 0.1 nM | CC(=O)N1CCc2c(c(N3CCCc4cc(-c5cnn(C)c5)c(C(F)F)cc43)nn2C2CCN(C3CCC4(CC3)CC(Oc3ccc(C(=O)N[C@H]5CC[C@H](Oc6ccc(C#N)c(Cl)c6)CC5)nn3)C4)CC2)C1 (some centres unmarked) [Compound 245, 6-[7-[4-[5-acetyl-3-[7-(difluoromethyl)-6-(1-methylpyrazol-4-yl)-3,4-dihydro-2H-quinolin-1-yl]-6,7-dihydro-4H-pyrazolo[4,3-c]pyridin-1-yl]-1-piperidyl]spiro[3.5]nonan-2-yl]oxy-N-[4-(3-chloro-4-cyano-phenoxy)cyclohexyl]pyridazine-3-carboxamide]
4 | < 1 nM | 1 to 100 nM | CC(=O)N1CCc2c(c(N3CCCc4cc(-c5cnn(C)c5)c(C(F)F)cc43)nn2C2CCC3(CC2)CC(Oc2ccc(C(=O)N[C@H]4CC[C@H](Oc5ccc(C#N)c(C(F)(F)F)c5)CC4)nn2)C3)C1 (some centres unmarked) [Compound 246, 6-[7-[5-acetyl-3-[7-(difluoromethyl)-6-(1-methylpyrazol-4-yl)-3,4-dihydro-2H-quinolin-1-yl]-6,7-dihydro-4H-pyrazolo[4,3-c]pyridin-1-yl]spiro[3.5]nonan-2-yl]oxy-N-[4-[4-cyano-3-(trifluoromethyl)phenoxy]cyclohexyl]pyridazine-3-carboxamide]
5 | < 1 nM | ≤ 0.1 nM | CC(=O)N1CCc2c(c(N3CCCc4cc(-c5cnn(C)c5)c(C(F)F)cc43)nn2C2CCN(C3CC4(CC(Oc5ccc(C(=O)N[C@H]6CC[C@H](Oc7ccc(C#N)c(Cl)c7)CC6)nn5)C4)C3)CC2)C1 (some centres unmarked) [Compound 247, 6-[6-[4-[5-acetyl-3-[7-(difluoromethyl)-6-(1-methylpyrazol-4-yl)-3,4-dihydro-2H-quinolin-1-yl]-6,7-dihydro-4H-pyrazolo[4,3-c]pyridin-1-yl]-1-piperidyl]spiro[3.3]heptan-2-yl]oxy-N-[4-(3-chloro-4-cyano-phenoxy)cyclohexyl]pyridazine-3-carboxamide]
6 | < 1 nM | 0.1 to 1 nM | CC(=O)N1CCc2c(c(N3CCCc4cc(-c5cnn(C)c5)c(C(F)F)cc43)nn2[C@H]2CC[C@H](N3CCC4(CC3)CC(Oc3ccc(C(=O)N[C@H]5CC[C@H](Oc6ccc(C#N)c(Cl)c6)CC5)nn3)C4)CC2)C1 [Compound 248]
7 | < 1 nM | ≤ 0.1 nM | CC(=O)N1CCc2c(c(N3CCCc4cc(-c5cnn(C)c5)c(C(F)F)cc43)nn2[C@H]2CC[C@H](N3CC4(CC(Oc5ccc(C(=O)N[C@H]6CC[C@H](Oc7ccc(C#N)c(Cl)c7)CC6)nn5)C4)C3)CC2)C1 [Compound 249]
8 | < 1 nM | ≤ 0.1 nM | CC(=O)N1CCc2c(c(N3CCCc4cc(-c5cnn(C)c5)c(C(F)F)cc43)nn2[C@H]2CC[C@H](N3CCN(c4ccc(C(=O)N[C@H]5CC[C@H](Oc6ccc(C#N)c(Cl)c6)CC5)nn4)CC3)CC2)C1 [Compound 250, 6-[4-[4-[5-acetyl-3-[7-(difluoromethyl)-6-(1-methylpyrazol-4-yl)-3,4-dihydro-2H-quinolin-1-yl]-6,7-dihydro-4H-pyrazolo[4,3-c]pyridin-1-yl]cyclohexyl]piperazin-1-yl]-N-[4-(3-chloro-4-cyano-phenoxy)cyclohexyl]pyridazine-3-carboxamide]
9 | < 1 nM | ≤ 0.1 nM | CC(=O)N1CCc2c(c(N3CCCc4cc(-c5cnn(C)c5)c(C(F)F)cc43)nn2C2CCN(C3CC4(CCC(Oc5ccc(C(=O)N[C@H]6CC[C@H](Oc7ccc(C#N)c(Cl)c7)CC6)nn5)CC4)C3)CC2)C1 (some centres unmarked) [Compound 252, 6-[2-[4-[5-acetyl-3-[7-(difluoromethyl)-6-(1-methylpyrazol-4-yl)-3,4-dihydro-2H-quinolin-1-yl]-6,7-dihydro-4H-pyrazolo[4,3-c]pyridin-1-yl]-1-piperidyl]spiro[3.5]nonan-7-yl]oxy-N-[4-(3-chloro-4-cyano-phenoxy)cyclohexyl]pyridazine-3-carboxamide]
10 | < 1 nM | ≤ 0.1 nM | CC(=O)N1CCc2c(c(N3CCCc4cc(-c5cscn5)c(C(F)F)cc43)nn2C2CCN(CC3CCN(c4ccc(C(=O)N[C@H]5CC[C@H](Oc6ccc(C#N)c(Cl)c6)CC5)nn4)CC3)CC2)C1 [Compound 253, 6-[4-[[4-[5-acetyl-3-[7-(difluoromethyl)-6-thiazol-4-yl-3,4-dihydro-2H-quinolin-1-yl]-6,7-dihydro-4H-pyrazolo[4,3-c]pyridin-1-yl]-1-piperidyl]methyl]-1-piperidyl]-N-[4-(3-chloro-4-cyano-phenoxy)cyclohexyl] pyridazine-3-carboxamide]
11 | < 1 nM | ≤ 0.1 nM | CC(=O)N1CCc2c(c(N3CCCc4cc(-c5ccn(C)n5)c(C(F)F)cc43)nn2C2CCN(CC3CCN(c4ccc(C(=O)N[C@H]5CC[C@H](Oc6ccc(C#N)c(Cl)c6)CC5)nn4)CC3)CC2)C1 [Compound 254, 6-[4-[[4-[5-acetyl-3-[7-(difluoromethyl)-6-(1-methylpyrazol-3-yl)-3,4-dihydro-2H-quinolin-1-yl]-6,7-dihydro-4H-pyrazolo[4,3-c]pyridin-1-yl]-1-piperidyl]methyl]-1-piperidyl]-N-[4-(3-chloro-4-cyano-phenoxy)cyclohexyl]pyridazine-3-carboxamide]
12 | < 1 nM | 0.1 to 1 nM | CC(=O)N1CCc2c(c(N3CCCc4cc(-c5nccs5)c(C(F)F)cc43)nn2C2CCN(CC3CCN(c4ccc(C(=O)N[C@H]5CC[C@H](Oc6ccc(C#N)c(Cl)c6)CC5)nn4)CC3)CC2)C1 [Compound 255, 6-[4-[[4-[5-acetyl-3-[7-(difluoromethyl)-6-thiazol-2-yl-3,4-dihydro-2H-quinolin-1-yl]-6,7-dihydro-4H-pyrazolo[4,3-c]pyridin-1-yl]-1-piperidyl]methyl]-1-piperidyl]-N-[4-(3-chloro-4-cyano-phenoxy)cyclohexyl]pyridazine-3-carboxamide]
13 | < 1 nM | 0.1 to 1 nM | CC(=O)N1CCc2c(c(N3CCCc4cc(-c5ncco5)c(C(F)F)cc43)nn2C2CCN(CC3CCN(c4ccc(C(=O)N[C@H]5CC[C@H](Oc6ccc(C#N)c(Cl)c6)CC5)nn4)CC3)CC2)C1 [Compound 256, 6-[4-[[4-[5-acetyl-3-[7-(difluoromethyl)-6-oxazol-2-yl-3,4-dihydro-2H-quinolin-1-yl]-6,7-dihydro-4H-pyrazolo[4,3-c]pyridin-1-yl]-1-piperidyl]methyl]-1-piperidyl]-N-[4-(3-chloro-4-cyano-phenoxy)cyclohexyl] pyridazine-3-carboxamide]
